Measurements: patent US10442788B2, “Hepatitis B antiviral agents” (ENANTA PHARMACEUTICALS, INC., priority 2015, dated 2019)

Key:
[1] = system: HBV; assay: HepAD38 antiviral assay: reduction of viral product accumulation (virion DNA by qPCR, HBsAg or HBeAg by ELISA); assay type: cell-based; conditions: Hepatitis B virus, 120 h; HepAD38 cells, five days after compound addition; 50% reduction of viral product accumulation relative to no drug controls; read-out: HepAD38 EC50
Procedure, shortened: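 Tetracycline-washed HepAD38 cells treated with compound (DMSO diluted 1:200) for 5 days, or 8 days with media and compound refreshed on d2 and d5. Virion DNA from lysates quantified by qPCR; HBsAg or HBeAg by ELISA. EC50 is the concentration giving 50% reduction versus no-drug controls, reported as ranges A<1 μM, B 1-10 μM, C>10 μM.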

[2] = Compound toxicity, ATPLite total ATP levels; assay type: cell-based; conditions: human, HepAD38 cells; 15,000 cells/well, three days after compound addition; 50% reduction of total ATP levels relative to no drug controls
Procedure: Methods: HepAD38 cells are maintained as previously reported (Ladner et al, Antimicrob. Agents Chemother. 1997, […], 1715). Briefly, cells are passaged upon attaining confluency in DMEM/F12 media in the presence of 10% FBS, Penn/Strep, 250 μg/mL G418, and 1 ug/ml tetracycline. Novel compounds are screened by first washing cells three times with PBS to remove tetracycline, and plating in 96 well plates at 35,000 cells/well. Compounds dissolved in DMSO are then diluted 1:200 into wells containing cells. Five days after compound addition, material is harvested for analysis. For an extended 8 day analysis, cells are plated and treated as described above, but media and compound are refreshed on d2 and d5 post initial treatment.
Compound toxicity is evaluated by seeding cells at 15,000 cells/well and treating with compound as described above. Three days after compound addition, cells are treated with ATPLite reagent and compound concentrations that reduce total ATP levels in wells by 50% relative to no drug controls (CC50) are reported; CC50 ranges are as follows: A>30 μM; B 10-30 μM; C<10 μM.

| Compound | EC50 [1] [nM] | CC50 at 3 days [2] [µM] |
| --- | --- | --- |
| CN(C1CCCCC1)S(=O)(=O)c1cc(-c2nc(-c3ccc(Br)c(F)c3)c[nH]2)ccc1Cl [Example 113] | < 1000 | < 10 |
| CC(C)NS(=O)(=O)c1cc(-c2nc(-c3ccc(Br)c(F)c3)c[nH]2)ccc1Cl [Example 111] | < 1000 | < 10 |
| COC1CCN(S(=O)(=O)c2cc(-c3ncc(-c4ccc(F)c(Br)c4)[nH]3)ccc2Cl)CC1 [Example 39] | < 1000 | 10 to 30 |
| O=S(=O)(c1cc(-c2nc(-c3ccc(Br)c(Br)c3)c[nH]2)ccc1Cl)N1CCC(O)CC1 [Example 135] | < 1000 | > 30 |
| O=S(=O)(c1cc2nc(-c3ccccc3)[nH]c2cc1Cl)N1CCC(O)CC1 [Example 2] | > 10000 | < 10 |
| O=C1CCN(S(=O)(=O)c2cc(-c3nc(-c4ccc(Br)c(F)c4)c[nH]3)ccc2Cl)CC1 [Example 59] | < 1000 | 10 to 30 |
| O=S(=O)(c1cc(-c2nc(-c3ccc(Br)cc3)c[nH]2)ccc1Cl)N1CCC(O)CC1 [Example 66] | < 1000 | 10 to 30 |
| O=S(=O)(c1cc(-c2nc(-c3ccc(F)cc3)c[nH]2)ccc1Cl)N1CCC(O)CC1 [Example 40] | 1000 to 10000 | > 30 |
| O=S(=O)(c1ccc2[nH]c(-c3ccccc3)nc2c1)N1CCC(O)CC1 [Example 15] | > 10000 | > 30 |
| O=S(=O)(c1cc(-c2cc(-c3ccc(F)c(F)c3)[nH]n2)ccc1Cl)N1CCC(O)CC1 [Example 8] | < 1000 | 10 to 30 |
| O=S(=O)(NCCCO)c1cc(-c2nc(-c3ccc(Br)c(F)c3)c[nH]2)ccc1Cl [Example 116] | < 1000 | > 30 |
| O=S(=O)(c1cc(-c2nc(-c3ccc(Cl)c(Cl)c3)c[nH]2)ccc1Cl)N1CCC(O)CC1 [Example 71] | < 1000 | 10 to 30 |
| N#Cc1cc(-c2cnc(-c3ccc(Cl)c(S(=O)(=O)N4CCC(O)CC4)c3)[nH]2)ccc1F [Example 22] | < 1000 | > 30 |
| CC(CO)N(C)S(=O)(=O)c1cc(-c2nc(-c3ccc(Br)c(F)c3)c[nH]2)ccc1Cl (stereo not drawn) [Example 129] | < 1000 | < 10 |
| O=S(=O)(c1cc(-c2nc(-c3ccc(Cl)cc3)c[nH]2)ccc1Cl)N1CCC(O)CC1 [Example 52] | < 1000 | 10 to 30 |
| O=S(=O)(NCCO)c1cc(-c2ncc(-c3ccc(F)c(Br)c3)[nH]2)ccc1Cl [Example 38] | < 1000 | 10 to 30 |
| COc1cccc(-c2c[nH]c(-c3ccc(Cl)c(S(=O)(=O)N4CCC(O)CC4)c3)n2)c1 [Example 93] | > 10000 | > 30 |
| O=S(=O)(c1cc(-c2nc(-c3ccc4[nH]ccc4c3)c[nH]2)ccc1Cl)N1CCC(O)CC1 [Example 103] | < 1000 | > 30 |
| N#Cc1cc(-c2c[nH]c(-c3ccc(Cl)c(S(=O)(=O)N4CCC(O)CC4)c3)n2)ccc1Cl [Example 148] | < 1000 | > 30 |
| COC(=O)NCCCNS(=O)(=O)c1cc(-c2nc(-c3ccc(Br)c(F)c3)c[nH]2)ccc1Cl [Example 139] | < 1000 | > 30 |
| CC(C)OC(=O)[C@@H](C)NS(=O)(=O)c1cc(-c2ncc(-c3ccc(F)c(Br)c3)[nH]2)ccc1Cl [Example 41] | 1000 to 10000 | > 30 |
| Cc1ccc(-c2c[nH]c(-c3ccc(Cl)c(S(=O)(=O)N4CCC(O)CC4)c3)n2)cc1F [Example 73] | 1000 to 10000 | > 30 |
| O=S(=O)(c1cc(-c2nc3cc(F)c(F)cc3[nH]2)ccc1Cl)N1CCC(O)CC1 [Example 10] | 1000 to 10000 | > 30 |

| Compound | EC50 [1] [nM] | CC50 at 3 days [2] [µM] |
| --- | --- | --- |
| COC(=O)[C@H]1CCN(S(=O)(=O)c2cc(-c3ncc(-c4ccc(F)c(Br)c4)[nH]3)ccc2Cl)C1 [Example 58] | 1000 to 10000 | > 30 |
| Cc1cc(F)ccc1-c1c[nH]c(-c2ccc(Cl)c(S(=O)(=O)N3CCC(O)CC3)c2)n1 [Example 67] | 1000 to 10000 | 10 to 30 |
| O=S(=O)(c1cc(-c2nc(-c3cccc(C4CC4)c3)c[nH]2)ccc1Cl)N1CCC(O)CC1 [Example 136] | 1000 to 10000 | > 30 |
| COCCN(C)S(=O)(=O)c1cc(-c2nc(-c3ccc(Br)c(F)c3)c[nH]2)ccc1Cl [Example 105] | < 1000 | > 30 |
| O=S(=O)(c1cc(-c2nc(-c3ccc(Br)c(F)c3)c[nH]2)ccc1Cl)N1CCC(O)CC1 [Example 18] | < 1000 | 10 to 30 |
| O=S(=O)(c1cc(-c2nc(-c3ccncc3)c[nH]2)ccc1Cl)N1CCC(O)CC1 [Example 51] | > 10000 | > 30 |
| O=S(=O)(c1cc(-c2nc(-c3ccc(Br)c(F)c3)c[nH]2)ccc1Cl)N1CCN(CCO)CC1 [Example 145] | < 1000 | > 30 |
| CC(C)(C)OC(=O)NCCNS(=O)(=O)c1cc(-c2nc(-c3ccc(Br)c(F)c3)c[nH]2)ccc1Cl [Example 146] | < 1000 | > 30 |
| O=S(=O)(c1cc(-c2nc(-c3ccccc3F)c[nH]2)ccc1Cl)N1CCC(O)CC1 [Example 68] | 1000 to 10000 | > 30 |
| O=S(=O)(c1cc(-c2nc(-c3ccsc3)c[nH]2)ccc1Cl)N1CCC(O)CC1 [Example 69] | 1000 to 10000 | > 30 |
| CN(CCCO)S(=O)(=O)c1cc(-c2nc(-c3ccc(Br)c(F)c3)c[nH]2)ccc1Cl [Example 106] | < 1000 | < 10 |
| O=S(=O)(c1cc(-c2nc(-c3cc(F)c(F)c(F)c3)c[nH]2)ccc1Cl)N1CCC(O)CC1 [Example 30] | 1000 to 10000 | 10 to 30 |
| O=S(=O)(c1cc2nc(-c3cc(F)c(F)c(F)c3)[nH]c2cc1Cl)N1CCC(O)CC1 [Example 3] | > 10000 | > 30 |
| CC(C)(C)OC(=O)NCCCNS(=O)(=O)c1cc(-c2nc(-c3ccc(Br)c(F)c3)c[nH]2)ccc1Cl [Example 138] | < 1000 | > 30 |
| O=S(=O)(c1cc(-c2ncc(-c3ccc(F)c(F)c3)o2)ccc1Cl)N1CCC(O)CC1 [Example 26] | > 10000 | > 30 |
| N#Cc1cccc(-c2c[nH]c(-c3ccc(Cl)c(S(=O)(=O)N4CCC(O)CC4)c3)n2)c1 [Example 92] | 1000 to 10000 | > 30 |
| CC(=O)OC1CCN(S(=O)(=O)c2cc(-c3nc(-c4ccc(F)c(Br)c4)c[nH]3)ccc2Cl)CC1 [Example 35] | 1000 to 10000 | 10 to 30 |
| Cc1cccc(-c2c[nH]c(-c3ccc(Cl)c(S(=O)(=O)N4CCC(O)CC4)c3)n2)c1 [Example 91] | 1000 to 10000 | > 30 |
| O=S(=O)(c1cc(-c2ncc(-c3cccnc3)[nH]2)ccc1Cl)N1CCC(O)CC1 [Example 50] | 1000 to 10000 | > 30 |
| O=S(=O)(c1cc(-c2nc(-c3ccc(Br)c(F)c3)c[nH]2)ccc1Cl)N1CCN(c2ccccn2)CC1 [Example 130] | < 1000 | > 30 |
| O=S(=O)(c1cc(-c2nc(-c3ccc(F)c(C(F)(F)F)c3)c[nH]2)ccc1Cl)N1CCC(O)CC1 [Example 55] | < 1000 | 10 to 30 |
| COC(=O)NCCNS(=O)(=O)c1cc(-c2nc(-c3ccc(Br)c(F)c3)c[nH]2)ccc1Cl [Example 119] | < 1000 | < 10 |
